# Results published in paper PMC10096398, “Discovery of Novel EGFR Inhibitor Targeting Wild-Type and Mutant Forms of EGFR: In Silico and In Vitro Study” (Molecules, 2023).
# Counter-ions that a name gives are not always drawn. Like-named read-outs stand apart in the source and are kept apart here.
# Tests used:
# H1975 = experiment: MTT cell viability assay; format: cell-based; conditions: Homo sapiens, read-out: IC50 (μM) H1975
# Procedure: (§1) The cytotoxicity activities of potent PD derivatives obtained from the SIE method against A549 and H1975, as well as Vero (which are adherent cells), were assessed using MTT (3-(4,5-dimethyl-2-thiazolyl)-2,5-diphenyl-2H-tetrazolium bromide) assays. The A549 and Vero cells were grown in complete DMEM medium whereas H1975 cells were grown in complete RPMI medium supplemented with 10% (v/v) FBS, 100 U/mL penicillin and 100 µg/mL streptomycin. All cells were routinely cultured at 37 °C in a 5% (v/v) CO2, 95% (v/v) air humidified incubator. A549 (5 × 10^3 cells per well), H1975 (5 × 10^3 cells per well), and Vero (2 × 10^3 cells per well) cells were seeded into 96-well plates and incubated overnight. After cell attachment, cells were replenished using fresh medium with 0.1% FBS containing various concentrations of potent PD derivatives and known drugs and then incubated at 37 °C for 72 h. After that, fresh medium containing MTT solution (5 mg/mL) was added and incubated at 37 °C. After 3 h, the formed formazan crystal was dissolved with 100 μL of dimethyl sulfoxide (DMSO). Finally, the absorbance of formazan solution was measured at a wavelength 570 nm using a microplate reader (Infinite M200 microplate reader, Tecan, Männedorf, Switzerland). The independent treatments were repeated in triplicate. The IC50 determination of compounds was achieved using GraphPad Prism version 9.0.
# A549 = experiment: MTT cell viability assay; format: cell-based; conditions: Homo sapiens, read-out: IC50 (μM) A549
# Procedure: as §1
# Vero = experiment: MTT cell viability assay, normal cell line; format: cell-based, monkey; conditions: 72 h, read-out: IC50 (μM) Vero
# Procedure: as §1
# L858R/T790M EGFR = L858R/T790M EGFR (Homo sapiens, UniProt P00533, L858R/T790M); experiment: EGFR inhibitory activity, ADP-Glo kinase assay; format: biochemical; conditions: for IC50: ADP-Glo
# Procedure: (§2) Firstly, 8 µL of buffer (40 mM Tris-HCl pH 7.5, 20 mM MgCl2, and 0.1 mg/mL bovine serum albumin) were added to a 384-well plate (Promega, solid white). […] Thirdly, 5 µL of the ADP-Glo reagent was added and incubated for 40 min. Finally, 10 µL of kinase detection reagent was added and incubated at room temperature for 30 min and was detected by measuring the luminescence using a microplate reader (Infinite M200 microplate reader, Tecan, Männedorf, Switzerland).
# L858R/T790M/C797S EGFR = L858R/T790M/C797S EGFR (Homo sapiens, UniProt P00533, C797S/L858R/T790M); experiment: EGFR inhibitory activity, ADP-Glo kinase assay; format: biochemical
# Procedure: as §2
# wild-type EGFR = wild-type EGFR (Homo sapiens, UniProt P00533); experiment: EGFR inhibitory activity, ADP-Glo kinase assay; format: biochemical; conditions: for IC50: ADP-Glo; for EGFR inhibitory screening: single 1 µM concentration
# Procedure: as §2
# [1] = Primates, Vero, Vero normal cells, MTT
compound,measurement,setting,value
Cc1ncc(Cn2ccnc2)c2cc(C(=O)c3ccc(Br)cc3)oc12.Cl,melting point,,278 to 280 °C
Cc1ncc(Cn2cnc(Cl)c2Cl)c2cc(C(=O)c3ccc(Br)cc3)oc12,melting point,,183 to 185 °C
Cc1ncc(CN2CCN(C=O)CC2)c2cc(C(=O)c3ccc(Br)cc3)oc12.Cl,melting point,,233 to 239 °C
"Cc1ncc(CN2CCN(Cc3cccnc3)CC2)c2cc(C(=O)c3ccc4c(c3)OCCO4)oc12 (as salt: hydrochloride) [PD13, (2,3-Dihydrobenzo[d][1,4]dioxin-6-yl){7-methyl-4-[(4-(pyridin-3-ylmethyl)piperazin-1-yl)methyl]furo[2,3-c]pyridin-2-yl}methanone dihydrochloride]",melting point,,224 to 227 °C
CN(C)C/C=C/C(=O)Nc1cc2c(Nc3ccc(F)c(Cl)c3)ncnc2cc1O[C@H]1CCOC1 [Afatinib],IC50,"H1975; NCI-H1975, 72 h",27.3 ± 1.87 µM
same,IC50,"A549; A549, 72 h",34.7 ± 0.67 µM
same,IC50,"Vero; Primates, Vero",> 50 µM
C#Cc1cccc(Nc2ncnc3cc(OCCOC)c(OCCOC)cc23)c1 [Erlotinib],IC50,"H1975; NCI-H1975, 72 h",41.8 ± 2.19 µM
same,IC50,"A549; A549, 72 h",19.4 ± 0.79 µM
same,IC50,"Vero; Primates, Vero",> 30 µM
C=CC(=O)Nc1cc(Nc2nccc(-c3cn(C)c4ccccc34)n2)c(OC)cc1N(C)CCN(C)C [Osimertinib],IC50,"H1975; NCI-H1975, 72 h",18.3 ± 2 µM
same,IC50,"A549; A549, 72 h",25.3 ± 1.21 µM
same,IC50,"Vero; Primates, Vero",> 50 µM
"COc1ccc(C(=O)c2cc3c(CO)cnc(C)c3o2)cc1 [PD1, [4-Hydroxymethyl-7-methylfuro[2,3-c]pyridin-2-yl](4-methoxyphenyl)methanone]",melting point,,147 to 148 °C
"Cc1ncc(CN2CCN(Cc3ccccn3)CC2)c2cc(C(=O)c3ccc(Br)cc3)oc12.Cl.Cl [PD3, (4-Bromophenyl){7-methyl-4-[(4-(pyridin-2-ylmethyl)piperazin-1-yl]methyl}furo[2,3-c]pyridin-2-yl)methanone dihydrochloride]",melting point,,224 to 225 °C
"Cc1ncc(CN2CCN(Cc3cccnc3)CC2)c2cc(C(=O)c3ccc(Br)cc3)oc12.Cl.Cl [PD4, (4-Bromophenyl){7-methyl-4-[(4-(pyridin-3-ylmethyl)piperazin-1-yl]methyl}furo[2,3-c]pyridin-2-yl)methanone dihydrochloride]",IC50,"H1975; NCI-H1975, H1975, MTT, 72 h",27.3 ± 1.02 µM
same,IC50,"A549; A549, MTT, 72 h",19.7 ± 0.59 µM
same,IC50,Vero; [1],< 100 µM
same,IC50,"Vero; Vero normal cells, MTT",> 50 µM
same,melting point,,243 to 247 °C
same,IC50,L858R/T790M EGFR,91 ± 2.01 nM
same,IC50,L858R/T790M/C797S EGFR,104 ± 3.62 nM
same,IC50,wild-type EGFR,4.78 ± 0.73 nM
same,EGFR inhibitory activity compared to erlotinib,wild-type EGFR; ratio of IC50 values,> 2 fold
same,EGFR inhibitory screening,wild-type EGFR,only against wild-type EGFR
"Cc1ncc(CN2CCN(CCC#N)CC2)c2cc(C(=O)c3ccc(Br)cc3)oc12 [PD10, 3-{4-[(2-(4-bromobenzoyl)-7-methylfuro[2,3-c]pyridin-4-yl)methyl]piperazin-1-yl}propanenitrile]",melting point,,129 to 132 °C
"Cc1ncc(CN2CCN(Cc3cccnc3)CC2)c2cc(C(=O)c3ccc4c(c3)OCCO4)oc12 [PD13, (2,3-Dihydrobenzo[d][1,4]dioxin-6-yl){7-methyl-4-[(4-(pyridin-3-ylmethyl)piperazin-1-yl)methyl]furo[2,3-c]pyridin-2-yl}methanone dihydrochloride]",IC50,"H1975; NCI-H1975, H1975, MTT, 72 h",33.9 ± 0.86 µM
same,IC50,"A549; A549, MTT, 72 h",18.1 ± 1.57 µM
same,IC50,Vero; [1],> 100 µM
same,IC50,L858R/T790M EGFR,10.5 ± 0.71 nM
same,EGFR inhibitory screening,L858R/T790M EGFR; single 1 µM concentration,active
same,IC50,L858R/T790M/C797S EGFR,21.9 ± 1.79 nM
same,IC50 (nM) L858R/T790M/C797S,L858R/T790M/C797S EGFR,double-digit nanomolar range
same,IC50,wild-type EGFR,11.6 ± 1.3 nM
same,EGFR inhibitory screening,wild-type EGFR,active
